What all share (assay type): cell-based
The test system of experiment [1] is MEL-28 (monolayer culture of a human melanoma). In words: in vitro cytotoxic assay, MEL-28 cells. As to conditions: SK-MEL-28, 72 h, three days of incubation, Crystal Violet staining, approximate IC50. The method, then:
(§1) Cells were maintained in logarithmic phase of growth in Eagle's Minimum Essential Medium, with Earle's Balanced Salts, with 2.0 mM L-glutamine, with non-essential amino acids, without sodium bicarbonate (EMEM/neaa); supplemented with 10% Fetal Calf Serum (FCS), 10^−2 M sodium bicarbonate and 0,1 g/l penicillin-G+streptomycin sulfate.
(§2) A screening procedure has been carried out to determine and compare the antitumor activity of these compounds, using an adapted form of the method described by Bergeron et al. (Reference 3). The antitumor cells employed were P-388 (suspension culture of a lymphoid neoplasm from DBA/2 mouse), A-549 (monolayer culture of a human lung carcinoma), HT-29 (monolayer culture of a human colon carcinoma) and MEL-28 (monolayer culture of a human melanoma).
(§3) A-549, HT-29 and MEL-28 cells were seeded into 16 mm wells at 2×10^4 cells per well in 1 ml aliquots of MEM 10FCS containing the indicated concentration of drug. A separate set of cultures without drug was seeded as control growth to ensure that cells remained in exponential phase of growth. All determinations were carried out in duplicate. After three days of incubation at 37° C., 10% CO2 in a 98% humid atmosphere, the wells were stained with 0.1% Crystal Violet. An approximately IC50 was determined by comparing the growth in wells with drug to the growth in wells control.

In experiment [2] the test system is A-549 (monolayer culture of a human lung carcinoma). In words: in vitro cytotoxic assay, A-549 cells. As to conditions: A549, 72 h, three days of incubation, Crystal Violet staining, approximate IC50. How it is done: as §1, §2, §3
Experiment [3] deals with P-388 (suspension culture of a lymphoid neoplasm from DBA/2 mouse). Description: in vitro cytotoxic assay, P-388 cells. As to conditions: P388, 72 h, three days of incubation, approximate IC50 by growth vs control wells. How it is done:
as §1, §2
P-388 cells were seeded into 16 mm wells at 1×10^4 cells per well in 1 ml aliquots of MEM 5FCS containing the indicated concentration of drug. A separate set of cultures without drug was seeded as control growth to ensure that cells remained in exponential phase of growth. All determinations were carried out in duplicate. After three days of incubation at 37° C., 10% CO2 in a 98% humid atmosphere, an approximately IC50 was determined by comparing the growth in wells with drug to the growth in wells control.

Experiment [4] concerns HT-29 (monolayer culture of a human colon carcinoma). In words: in vitro cytotoxic assay, HT-29 cells. As to conditions: 72 h, three days of incubation, Crystal Violet staining, approximate IC50. The method, then: as §1, §2, §3

Regarding `C=C1CCC[C@@H]2[C@@](C)(CC[C@@]3(C)CCn4cnc5ncnc(c54)N3O)[C@H](C)CC[C@@]12C` [Asmarine A], the IC50 in experiment [1], in experiment [2], in experiment [3] and in experiment [4] was 1180 nM throughout.
For `C=C1CCC[C@H]2[C@@](C)(CC[C@@]3(C)CCn4cnc5ncnc(c54)N3O)[C@H](C)CC[C@@]12C` [Asmarine B], the IC50 was 240 nM in experiment [1], 120 nM in experiment [2], 240 nM in experiment [3] and 120 nM in experiment [4].

The IC50 is the concentration at which inhibition is half-maximal. Read a high IC50 as lower potency.
